Source: US20160060285A1, “Aminoglycosides, Methods of Synthesis, and Associated Applications” (UTAH STATE UNIVERSITY, priority 2010, published 2016)
In brackets after ≈: the same amount, converted by molar mass.

Assays:
[1] = system: azole-resistant Candida albicans ATCC 64124; assay: Antifungal synergism by checkerboard analysis, K-compound and azole combinations; assay type: cell-based; details: Candida albicans, ATCC64124, K4608 checkerboard table; compound alone
[2] = system: Candida albicans ATCC MYA-2876 (azole sensitive); assay: Fungal MIC and MFC, microbroth dilution assay (M27-A3); assay type: cell-based; details: C. albicans MYA2876 (azole sensitive)
[3] = system: Candida albicans ATCC64124 (azole-resistant); assay: microbe, parasite or virus in culture; assay type: cell-based
[4] = system: Fusarium graminearum B4-5A; assay: microbe, parasite or virus in culture; assay type: cell-based; details: Fusarium graminearum, B45A, 48 h
[5] = system: Staphylococcus aureus ATCC25923; assay: Bacterial growth inhibition (MIC) test, microtiter plate, CLSI protocol; assay type: cell-based; details: Staphylococcus aureus, ATCC25923; S. aureus 25923; 37° C., 24 hours; read-out: MIC
[6] = system: HeLa cells; assay: Cell viability assay (MTT), cytotoxicity test; assay type: cell-based, human; details: for Viable Cells Percentage Compared to Control: MTT
Experimental: HeLa cells were grown in commercial DMEM 1× (Gibco) with 10% fetal bovine serum (FBS, Gibco), 100 U/mL penicillin, and 100 μg/mL streptomycin at 37° C. and 5% CO2. The cells were allowed to adhere for 24 h before drug treatment.
The cells were seeded in 96-well microtiter plates (10,000/200 μL). After 24 h of incubation in the media, cells were treated with various concentrations of K608, K4608 and K408 (0.0, 1.0, 10.0, 100.0, 1000 μg/mL and Trition 1×) for 48 h. 20 μL of MTT stock solution (5 mg/mL) was added to each well and incubated for 4 h at 37° C. Upon completion of incubation, the media was carefully removed and washed twice with […] of pbs buffer. Then, 200 μL of DMSO was added to each well; agitated on orbital shaker for 15 min., and the absorbance at 570 nm with 670 nm filter was determined with a microplate reader (Synergy H4). The results are expressed as viability compared with that of control. The experiment was carried out in triplicate in three independent experiments.

[7] = system: Escherichia coli ATCC 25922; assay: Bacterial growth inhibition (MIC) test, microtiter plate, CLSI protocol; assay type: cell-based; details: Escherichia coli, ATCC25922; E. coli 25922; Luria-Bertani medium, 37° C., 24 hours; read-out: MIC

Structure (SMILES): CCCCCCCCOC[C@H]1OC(O[C@@H]2C(N)CC(N)C(O[C@H]3OC(CN)[C@@H](O)[C@H](O)C3O)[C@@H]2O)[C@H](O)[C@H](N)C1OCCCCCCCC (some centres unmarked) [Compound K4608]
- MIC [1]: 31.2 µg/mL
- MIC ([2]; RPMI 1640, 35° C., 48 hours): 1.2 to 2.4 µg/mL (≈ 1.69 to 3.39 µM)
- MFC ([2]; subculture on Sabouraud dextrose agar after MIC test): 2.4 µg/mL (≈ 3.39 µM)
- MFC ([3]; ATCC64124): 9.8 µg/mL (≈ 13.8 µM)
- MIC ([3]; ATCC64124, 48 h): 4.9 to 9.8 µg/mL (≈ 6.91 to 13.8 µM)
- MIC [4]: 15.6 µg/mL (≈ 22 µM)
- MIC [5]: > 250 µg/mL
- toxicity to human cervical cancer cell line HeLa ([6]; 1.0 to 1000 μg/mL, 48 h): not toxic
- Viable Cells Percentage Compared to Control ([6]; HeLa, 1 μg/mL, 48 h): 124.28%
- Viable Cells Percentage Compared to Control ([6]; HeLa, 10 μg/mL, 48 h): 149.52%
- Viable Cells Percentage Compared to Control ([6]; HeLa, 100 μg/mL, 48 h): 129.86%
- Viable Cells Percentage Compared to Control ([6]; HeLa, 1000 μg/mL, 48 h): 122.93%
- effect on growth of cells (number of viable cells) ([6]; HeLa, wells treated with compound): promoted growth of cells
- MIC [7]: > 250 µg/mL
